Experimental data: ChEMBL document CHEMBL1131741, “Design of scytalone dehydratase inhibitors as rice blast fungicides: (N-phenoxypropyl)-carboxamides” (Bioorg Med Chem Lett, 1999)
Values after ≈ are worked out from the molar mass of the structure shown.

Legend:
rice = assay: Concentration that affords 90% control of blast disease on rice plants by multiple rate foliar rice blast assay; type: functional
Scytalone dehydratase [1] = biological target: T1, Scytalone dehydratase (Magnaporthe oryzae (strain 70-15 / FGSC 8958) (Rice blast fungus)(Pyricularia oryzae), UniProt P56221)
T1 sequence (P56221 whole entry): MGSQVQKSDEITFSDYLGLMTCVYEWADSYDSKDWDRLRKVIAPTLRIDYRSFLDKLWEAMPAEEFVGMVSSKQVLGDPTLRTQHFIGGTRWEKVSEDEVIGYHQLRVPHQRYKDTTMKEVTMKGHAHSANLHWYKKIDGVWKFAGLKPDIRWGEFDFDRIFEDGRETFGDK

Scytalone dehydratase [2] = biological target: T1, Scytalone dehydratase; remark: listed apart in the source

SMILES | ED90 (rice) | Ki (Scytalone dehydratase [1]) | Adjusted Ki (Scytalone dehydratase [2])
CC(COc1cccc(F)c1)NC(=O)[C@@H](C#N)C(C)(C)C (stereo not given in full) | 25 µg/mL (≈ 85.5 µM) | 0.46 nM | 0.23 nM
C[C@H](COc1cc(F)ccc1F)NC(=O)C(C#N)C(C)(C)C (stereo not given in full) | 6.2 µg/mL (≈ 20 µM) | 0.042 nM | 0.021 nM
CC[C@]1(C(=O)N[C@H](C)COc2ccc(F)cc2)C(C)C1(Cl)Cl (stereo not given in full) | 30 µg/mL (≈ 86.1 µM) | 0.22 nM | 0.11 nM
CC[C@]1(C(=O)N[C@H](C)COc2cccc(F)c2F)C(C)C1(Cl)Cl (stereo not given in full) | 100 µg/mL (≈ 273 µM) | 2.2 nM | 2.2 nM
CC[C@]1(C(=O)NC(C)COc2ccccc2)C(C)C1(Cl)Cl (stereo not given in full) | 50 µg/mL (≈ 151 µM) | 0.38 nM | 0.094 nM
C[C@H](COc1ccccc1)NC(=O)c1cc(F)ccc1O | – | 0.44 nM | –
CC[C@]1(C(=O)N[C@@H](C)COc2cc(F)ccc2F)C(C)C1(Cl)Cl (stereo not given in full) | 100 µg/mL (≈ 273 µM) | 33 nM | 16 nM
C[C@H](COc1cccc(F)c1)NC(=O)[C@@H](C#N)C(C)(C)C | 25 µg/mL (≈ 85.5 µM) | 0.24 nM | 0.24 nM
C[C@H](COc1ccccc1)NC(=O)[C@@H](C#N)C(C)(C)C (stereo in doubt; 6f) [listing 1 of 2 here] | 25 µg/mL (≈ 91.1 µM) | – | –
C[C@H](COc1cccc(F)c1F)NC(=O)[C@@H](C#N)C(C)(C)C | 25 µg/mL (≈ 80.6 µM) | 0.95 nM | 0.95 nM
CC[C@]1(C(=O)NCCOc2ccccc2)C(C)C1(Cl)Cl (stereo not given in full) | 200 µg/mL (≈ 632 µM) | 7.5 nM | 3.7 nM
CC[C@]1(C(=O)N[C@H](C)COc2cc(F)ccc2F)C(C)C1(Cl)Cl (stereo not given in full) | 6 µg/mL (≈ 16.4 µM) | 0.085 nM | 0.042 nM
CC[C@]1(C(=O)N[C@H](C)COc2ccccc2)C(C)C1(Cl)Cl (stereo not given in full) | 30 µg/mL (≈ 90.8 µM) | 0.17 nM | 0.0835 nM
C[C@H](COc1cc(F)ccc1F)NC(=O)[C@H](C#N)C(C)(C)C | 6.2 µg/mL (≈ 20 µM) | 0.73 nM | 0.73 nM
C[C@H](COc1ccccc1F)NC(=O)[C@@H](C#N)C(C)(C)C | 25 µg/mL (≈ 85.5 µM) | 0.08 nM | 0.08 nM
CC[C@]1(C(=O)N[C@H](C)COc2ccccc2F)C(C)C1(Cl)Cl (stereo not given in full) | 50 µg/mL (≈ 144 µM) | 0.37 nM | 0.19 nM

SMILES | ED90 (rice) | Ki (Scytalone dehydratase [1]) | Adjusted Ki (Scytalone dehydratase [2])
C[C@@H](COc1cc(F)ccc1F)NC(=O)[C@@H](C#N)C(C)(C)C | > 200 µg/mL | 7.7 nM | 7.7 nM
CC[C@]1(C(=O)NC(C)CCc2ccccc2)C(C)C1(Cl)Cl (stereo not given in full) | 30 µg/mL (≈ 91.4 µM) | 0.83 nM | 0.21 nM
C[C@H](COc1ccccc1)NC(=O)[C@H](C#N)C(C)(C)C | > 200 µg/mL | 66 nM | 33 nM
C[C@H](COc1ccccc1)NC(=O)[C@@H](C#N)C(C)(C)C (stereo in doubt; 6e) [listing 1 of 2 here] | – | 1.3 nM | 0.66 nM
C[C@H](COc1ccc(F)cc1)NC(=O)C(C#N)C(C)(C)C (stereo not given in full) | 100 µg/mL (≈ 342 µM) | 1.7 nM | 0.83 nM
C[C@H](COc1ccccc1)NC(=O)[C@@H](C#N)C(C)(C)C (stereo in doubt; 6f) [listing 2 of 2 here] | – | 0.58 nM | 0.58 nM
CC(CCc1ccccc1)NC(=O)C(C#N)C(C)(C)C (stereo not given) | > 200 µg/mL | 7.2 nM | 1.8 nM
CC(COc1ccccc1)NC(=O)C(C#N)C(C)(C)C (stereo not given) | 200 µg/mL (≈ 729 µM) | 2.8 nM | 0.7 nM
C[C@@H](COc1cc(F)ccc1F)NC(=O)[C@H](C#N)C(C)(C)C | > 200 µg/mL | 97 nM | 97 nM
CC(COc1ccccc1F)NC(=O)C(C#N)C(C)(C)C (stereo not given) | 50 µg/mL (≈ 171 µM) | 0.24 nM | 0.059 nM
CC(C)(C)C(C#N)C(=O)NCCCc1ccccc1 (stereo not given) | 200 µg/mL (≈ 774 µM) | 13.6 nM | 6.8 nM
C[C@H](COc1cc(F)ccc1F)NC(=O)[C@@H](C#N)C(C)(C)C | 0.8 µg/mL (≈ 2.58 µM) | 0.02 nM | 0.02 nM
C[C@H](COc1ccccc1)NC(=O)[C@@H](C#N)C(C)(C)C (stereo in doubt; 6e) [listing 2 of 2 here] | 100 µg/mL (≈ 364 µM) | – | –
CC[C@]1(C(=O)N[C@H](C)COc2cccc(F)c2)C(C)C1(Cl)Cl (stereo not given in full) | 30 µg/mL (≈ 86.1 µM) | 0.11 nM | 0.057 nM
CC[C@]1(C(=O)NCCCc2ccccc2)C(C)C1(Cl)Cl (stereo not given in full) | 30 µg/mL (≈ 95.5 µM) | 1.9 nM | 0.96 nM
